Data reported in PMC3592791, “Fluorescence-Based High-Throughput Functional Profiling of Ligand-Gated Ion Channels at the Level of Single Cells” (PLoS ONE, 2013).

Assays:
α1 GlyR = biological target: T1, α1 GlyR (Homo sapiens, UniProt P23415); format: cell-based
T1 construct: expressed in transfected cells; host or cells: HEK293
T1 sequence (P23415 29-457): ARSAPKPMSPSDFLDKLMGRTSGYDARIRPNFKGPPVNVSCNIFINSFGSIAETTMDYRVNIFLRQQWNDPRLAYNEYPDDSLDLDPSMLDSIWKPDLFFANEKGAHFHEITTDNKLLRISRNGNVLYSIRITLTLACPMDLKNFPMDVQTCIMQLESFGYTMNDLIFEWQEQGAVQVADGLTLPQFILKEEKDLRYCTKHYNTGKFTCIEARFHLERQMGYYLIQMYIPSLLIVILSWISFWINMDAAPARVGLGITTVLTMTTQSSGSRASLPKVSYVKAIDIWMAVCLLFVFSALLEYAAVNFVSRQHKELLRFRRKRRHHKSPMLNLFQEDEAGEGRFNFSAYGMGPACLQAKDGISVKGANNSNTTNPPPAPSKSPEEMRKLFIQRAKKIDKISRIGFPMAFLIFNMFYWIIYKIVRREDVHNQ
Experimental: (§1) plated into 60-mm culture dishes and were transfected when approx. 80% confluent. YFP and GlyR chloride channel subunits were transfected in 1∶1 (YFP and α1-3 GlyR homomers) or 2∶1∶1 ratio (YFP, GlyR α1-3 homo and α1-3β GlyR heteromers) with a total cDNA quantity of 1 µg. Cells were transfected using calcium phosphate precipitation transfection technique, as described in Sambrook et al.. […] We have published a detailed comparison of five transient transfection methods employed routinely in the laboratory for this purpose.
(§2) The human α1, α2 and α3 GlyR plasmid DNAs were subcloned into the pcDNA3.1 plasmid vector and the human β subunit plasmid DNA was subcloned into pIRES2-EGFP plasmid vector. The UniprotKB accession numbers for the DNAs are as follows (with gene name in brackets): α1 (GLRA1): P23415, α2 (GLRA2): P23416, α3 (GLRA3): O75311 and β(GLRB): P48167.
(§3) Following termination of transfection, cells were trypsinized by adding 0.7 mL of 0.25% trypsin–EDTA solution (Gibco BRL), resuspended into DMEM, and 2.5×10^3 cells, suspended in 40 µL DMEM, were plated into each well of a transparent 384-well plate for fluorescence imaging experiments. Cells were used in experiments 24 h later. Individual wells typically contained 5×10^3 cells at the time of the experiment. Approximately 1 h prior to commencement of experiments culture media in 384-well plates were removed by turning the plate upside-down onto a stack of tissue and were left for approximately 30 sec until culture media was entirely removed from the wells. The culture media was replaced by 20 µL standard control solution, which contained (in mM) NaCl 140, KCl 5, CaCl2 2, MgCl2 1, HEPES 10, and glucose 10 (pH 7.4) using NaOH. […] For drug screening experiments agonist solutions were supplemented with strychnine (10, 30, 100 µM), picrotoxin (10, 100 µM) and lindane (10, 100 µM) respectively. Drugs were diluted from stocks in agonist solution according to desired final concentrations. […] Experiments were conducted at room temperature (19–22°C).
(§4) The maximum image acquisition rate was 1.25 Hz. Solutions containing agonist and drug were pipetted into a 384-well plate and placed onto LC PAL sample holder platform. Liquid handling was performed with the autosampler described above. Solutions were applied to cells at a rate of 0.6 ml/min.
(§5) Images of fluorescent cells were segmented and quantitatively analyzed using a modified version of DetecTIFF® software. In brief, images were segmented using an iterative size and intensity-based thresholding algorithm and the fluorescence signal of identified cells was calculated as the mean of all pixel values within the area of a cell.
(§6) This VI uses the Levenberg-Marquardt algorithm to determine the set of parameters that best fit the set of input data points (X, Y) as expressed by the nonlinear function: [drawing 1] where a is the set of parameters. The curve model is defined by the following equation: […]

α2 GlyR [1] = biological target: T2, α2 GlyR (Homo sapiens, UniProt P23416); format: cell-based
T2 construct: expressed in transfected cells; host or cells: HEK293
T2 sequence (P23416 28-452): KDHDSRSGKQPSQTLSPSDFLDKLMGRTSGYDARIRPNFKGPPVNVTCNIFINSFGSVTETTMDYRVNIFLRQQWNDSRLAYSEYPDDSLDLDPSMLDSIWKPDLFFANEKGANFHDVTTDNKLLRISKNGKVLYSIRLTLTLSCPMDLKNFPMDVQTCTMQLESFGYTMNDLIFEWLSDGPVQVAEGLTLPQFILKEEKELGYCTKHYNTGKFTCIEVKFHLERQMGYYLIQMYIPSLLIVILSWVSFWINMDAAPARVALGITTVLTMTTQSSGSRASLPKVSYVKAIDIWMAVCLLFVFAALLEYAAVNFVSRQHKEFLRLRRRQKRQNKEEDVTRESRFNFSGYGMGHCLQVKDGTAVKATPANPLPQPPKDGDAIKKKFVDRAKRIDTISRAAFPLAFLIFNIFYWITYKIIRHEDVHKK
Experimental: as §1, §2, §3, §4, §5, §6

α3β GlyR [2] = biological target: T3, α3β GlyR (Homo sapiens, UniProt O75311+P48167); settings: read-out: Median half-maximal activation by glycine (EC50), control conditions; no drug, Fig. 4F, n = 122
Experimental: plated into 60-mm culture dishes and were transfected when approx. 80% confluent. YFP and GlyR chloride channel subunits were transfected in 1∶1 (YFP and α1-3 GlyR homomers) or 2∶1∶1 ratio (YFP, GlyR α1-3 homo and α1-3β GlyR heteromers) with a total cDNA quantity of 1 µg. Cells were transfected using calcium phosphate precipitation transfection technique, as described in Sambrook et al. [37]. Transfection efficiency varies from 20 to 60%. We routinely achieve a correlation of 80 to 90% between cells expressing YFP and cells expressing GlyRs. […]
Following termination of transfection, cells were trypsinized by adding 0.7 mL of 0.25% trypsin–EDTA solution (Gibco BRL), resuspended into DMEM, and 2.5×10^3 cells, suspended in 40 µL DMEM, were plated into each well of a transparent 384-well plate for fluorescence imaging experiments. […]
(§9) Images of fluorescent cells were segmented and quantitatively analyzed using a modified version of DetecTIFF® software [40]. In brief, images were segmented using an iterative size and intensity-based thresholding algorithm and the fluorescence signal of identified cells was calculated as the mean of all pixel values within the area of a cell.
• Goodness of fit (R^2, ≥0.9), to include curve fits that represent the data points to a high degree. • Dynamic range of fluorescence change (ΔF, 20–100%), to include cells co-expressing both, YFPI152L and GlyRs. […]

α3 GlyR [3] = biological target: T4, α3 GlyR (Homo sapiens, UniProt O75311); settings: Fig. 3A
T4 sequence (O75311 34-464): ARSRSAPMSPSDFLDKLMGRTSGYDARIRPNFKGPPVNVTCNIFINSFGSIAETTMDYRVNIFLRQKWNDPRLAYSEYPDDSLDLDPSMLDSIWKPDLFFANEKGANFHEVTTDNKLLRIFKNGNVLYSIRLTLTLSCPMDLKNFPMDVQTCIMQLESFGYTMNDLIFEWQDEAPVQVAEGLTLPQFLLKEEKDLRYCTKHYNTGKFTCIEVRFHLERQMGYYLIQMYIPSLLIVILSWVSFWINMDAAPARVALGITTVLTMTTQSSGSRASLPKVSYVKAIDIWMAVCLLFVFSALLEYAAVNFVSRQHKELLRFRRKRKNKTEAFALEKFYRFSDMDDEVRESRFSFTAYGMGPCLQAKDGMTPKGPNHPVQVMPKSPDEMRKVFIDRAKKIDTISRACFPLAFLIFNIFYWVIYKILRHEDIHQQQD
Experimental: plated into 60-mm culture dishes and were transfected when approx. 80% confluent. YFP and GlyR chloride channel subunits were transfected in 1∶1 (YFP and α1-3 GlyR homomers) or 2∶1∶1 ratio (YFP, GlyR α1-3 homo and α1-3β GlyR heteromers) with a total cDNA quantity of 1 µg. Cells were transfected using calcium phosphate precipitation transfection technique, as described in Sambrook et al. [37]. Transfection efficiency varies from 20 to 60%. We routinely achieve a correlation of 80 to 90% between cells expressing YFP and cells expressing GlyRs.
Following termination of transfection, cells were trypsinized by adding 0.7 mL of 0.25% trypsin–EDTA solution (Gibco BRL), resuspended into DMEM, and 2.5×10^3 cells, suspended in 40 µL DMEM, were plated into each well of a transparent 384-well plate for fluorescence imaging experiments. Cells were used in experiments 24 h later. Individual wells typically contained 5×10^3 cells at the time of the experiment. Approximately 1 h prior to commencement of experiments culture media in 384-well plates were removed by turning the plate upside-down onto a stack of tissue and were left for approximately 30 sec until culture media was entirely removed from the wells. […]
as §9
• Goodness of fit (R^2, ≥0.9), to include curve fits that represent the data points to a high degree. • Dynamic range of fluorescence change (ΔF, 20–100%), to include cells co-expressing both, YFPI152L and GlyRs.
Filter ranges for enrichment of functional data were determined empirically by biological relevance.

α2β GlyR [4] = biological target: T5, α2β GlyR (Homo sapiens, UniProt P23416+P48167); format: cell-based; settings: drugs at 10 and 100 µM, Fig. 6A
T5 construct: expressed in transfected cells; host or cells: HEK293
Experimental: as §1, §2, §3, §4, §5, §6

α2β GlyR [5] = biological target: T5, α2β GlyR; assay: Whole-cell patch-clamp electrophysiology, α2β GlyR; format: cell-based; settings: read-out: % block of EC50 glycine current; 100 µM lindane, HEK293 cells, -40 mV, 4–7 cells, Fig. 5B
Experimental: (§7) Cells were transfected as described above and plated onto glass coverslips in 3 cm culture dishes. Coverslips containing cells were placed in a recording chamber on the stage of an inverted fluorescent microscope and currents were recorded using the whole-cell patch-clamp configuration. Cells were perfused by extracellular solution containing (in mM): 140 NaCl, 5 KCl, 2 CaCl2, 1 MgCl2, 10 HEPES/NaOH and 10 glucose (pH 7.4 adjusted with NaOH). Patch pipettes were fabricated from borosilicate hematocrit tubing (Hirschmann Laborgeraete, Eberstadt, Germany) and heat polished. […] After establishment of the whole-cell recording configuration, cells were voltage clamped at −40 mV and membrane currents were recorded using an Axopatch 1D and pClamp 10 software (Molecular Devices). Currents were filtered at 500 Hz and digitized at 2 KHz.
(§8) Because αsubunits can form functional receptors with or without β subunits, it was necessary to confirm that the expressed receptors incorporated β subunits. As the GlyR β subunit cDNA was cloned into the pIRES2-EGFP plasmid vector, we used green fluorescent protein fluorescence to identify cells transfected with the GlyR β subunit. The successful incorporation of β subunits into functional heteromeric GlyRs was also confirmed pharmacologically by their characteristic reduction in […] sensitivity as described below.

α2 GlyR [6] = biological target: T2, α2 GlyR; assay: Whole-cell patch-clamp electrophysiology, α2 GlyR; format: cell-based; settings: read-out: % block of EC50 glycine current; 100 µM lindane, HEK293 cells, -40 mV, 4–7 cells, Fig. 5B
Experimental: as §7, §8

α3 GlyR [7] = biological target: T4, α3 GlyR; assay: Whole-cell patch-clamp electrophysiology, α3 GlyR; format: cell-based; set-up: expressed in transfected cells; host or cells: HEK293; settings: read-out: % block of EC50 glycine current; 100 µM lindane, HEK293 cells, -40 mV, 4–7 cells, Fig. 5B
Experimental: as §7, §8

α3β GlyR [8] = biological target: T3, α3β GlyR; assay: Whole-cell patch-clamp electrophysiology, α3β GlyR; format: cell-based; set-up: expressed in transfected cells; host or cells: HEK293; settings: read-out: % block of EC50 glycine current; 100 µM lindane, HEK293 cells, -40 mV, 4–7 cells, Fig. 5B
Experimental: as §7, §8

T5 sequence (P48167 23-497, one chain of several): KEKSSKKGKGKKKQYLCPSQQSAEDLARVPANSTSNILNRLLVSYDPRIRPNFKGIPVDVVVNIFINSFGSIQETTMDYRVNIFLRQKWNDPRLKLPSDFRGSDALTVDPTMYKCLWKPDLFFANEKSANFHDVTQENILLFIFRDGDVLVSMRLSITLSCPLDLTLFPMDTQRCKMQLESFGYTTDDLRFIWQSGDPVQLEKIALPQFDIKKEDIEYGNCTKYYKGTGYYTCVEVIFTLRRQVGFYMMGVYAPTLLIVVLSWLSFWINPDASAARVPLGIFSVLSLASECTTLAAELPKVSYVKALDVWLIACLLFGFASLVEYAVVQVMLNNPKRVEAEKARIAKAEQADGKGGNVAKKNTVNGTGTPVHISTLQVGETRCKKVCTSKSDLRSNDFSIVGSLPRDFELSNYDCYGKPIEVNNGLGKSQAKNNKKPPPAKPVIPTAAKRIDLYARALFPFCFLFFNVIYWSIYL
T3 sequence (P48167 23-497, one chain of several): as above

NCC(=O)O [glycine]
Slope value, averaged (α1 GlyR): 1.19±0.03 | Slope values, range over single cells (α1 GlyR): 0.47–1.92 | Slope value, averaged (α2 GlyR [1]): 2.92±0.09 | Slope values, range over single cells (α2 GlyR [1]): 0.51–4.73 | EC50 (α3β GlyR [2]): 46.8 ± 4 µM | Slope value, averaged (α3 GlyR [3]; glycine dose-response): 0.91±0.03 | Slope values, range over single cells (α3 GlyR [3]; glycine dose-response): 0.39–3.43 | EC50 (α3 GlyR [3]; read-out: Averaged glycine EC50, HEK293 cells, individual well, n = 212 cells): 186 ± 17 µM

O=C1C[C@@H]2OCC=C3CN4CC[C@]56c7ccccc7N1[C@H]5[C@H]2[C@H]3C[C@H]46 [strychnine]
Effect on receptor (color map of median glycine EC50) (α2β GlyR [4]): inhibition

Cl[C@H]1[C@H](Cl)[C@@H](Cl)[C@@H](Cl)[C@H](Cl)[C@H]1Cl [lindane, γ-hexachlorocyclohexane]
Effect on receptor (color map of median glycine EC50) (α2β GlyR [4]): no inhibition | inhibition at 100 µM (α2β GlyR [5]): 23 ± 4% | inhibition at 100 µM (α2 GlyR [6]): 94 ± 5% | inhibition at 100 µM (α3 GlyR [7]): 96 ± 4% | inhibition at 100 µM (α3β GlyR [8]): 14 ± 3%

picrotoxin
Effect on receptor (color map of median glycine EC50) (α2β GlyR [4]): no inhibition | Effect on receptor (color map of median glycine EC50) (α2 GlyR [1]; drugs at 10 and 100 µM, Fig. 6A): overall less block of homomeric α2 GlyRs by picrotoxin compared to lindane
